Test [1] addresses T1, Adrenergic receptor alpha-2 (Homo sapiens, UniProt P08913+P18825+P18089).
T1 sequence (P08913 whole entry): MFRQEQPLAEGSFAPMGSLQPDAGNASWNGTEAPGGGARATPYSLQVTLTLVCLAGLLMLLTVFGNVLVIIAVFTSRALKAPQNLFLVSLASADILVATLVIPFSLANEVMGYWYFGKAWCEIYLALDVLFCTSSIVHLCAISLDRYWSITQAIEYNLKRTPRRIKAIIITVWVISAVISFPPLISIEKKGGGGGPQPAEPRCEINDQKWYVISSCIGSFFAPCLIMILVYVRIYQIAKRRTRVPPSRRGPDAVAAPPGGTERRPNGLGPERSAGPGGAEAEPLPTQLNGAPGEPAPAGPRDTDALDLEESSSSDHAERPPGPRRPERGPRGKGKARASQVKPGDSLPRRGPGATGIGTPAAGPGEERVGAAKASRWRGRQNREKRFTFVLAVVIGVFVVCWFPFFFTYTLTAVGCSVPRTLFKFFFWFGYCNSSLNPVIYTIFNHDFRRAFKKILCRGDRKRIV
T1 sequence (P18825 whole entry): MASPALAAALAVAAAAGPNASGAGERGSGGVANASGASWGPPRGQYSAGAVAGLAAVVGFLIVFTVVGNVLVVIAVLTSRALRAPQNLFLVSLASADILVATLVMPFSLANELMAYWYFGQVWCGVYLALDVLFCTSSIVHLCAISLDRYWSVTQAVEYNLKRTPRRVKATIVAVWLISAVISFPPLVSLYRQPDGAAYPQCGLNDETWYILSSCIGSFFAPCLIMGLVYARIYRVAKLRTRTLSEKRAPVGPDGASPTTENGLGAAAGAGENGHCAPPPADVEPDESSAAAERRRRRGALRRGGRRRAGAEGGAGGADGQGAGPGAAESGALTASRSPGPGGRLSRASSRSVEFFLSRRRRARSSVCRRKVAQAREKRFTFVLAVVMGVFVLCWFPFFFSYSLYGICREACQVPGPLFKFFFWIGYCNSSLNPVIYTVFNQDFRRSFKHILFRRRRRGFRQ
T1 sequence (P18089 whole entry): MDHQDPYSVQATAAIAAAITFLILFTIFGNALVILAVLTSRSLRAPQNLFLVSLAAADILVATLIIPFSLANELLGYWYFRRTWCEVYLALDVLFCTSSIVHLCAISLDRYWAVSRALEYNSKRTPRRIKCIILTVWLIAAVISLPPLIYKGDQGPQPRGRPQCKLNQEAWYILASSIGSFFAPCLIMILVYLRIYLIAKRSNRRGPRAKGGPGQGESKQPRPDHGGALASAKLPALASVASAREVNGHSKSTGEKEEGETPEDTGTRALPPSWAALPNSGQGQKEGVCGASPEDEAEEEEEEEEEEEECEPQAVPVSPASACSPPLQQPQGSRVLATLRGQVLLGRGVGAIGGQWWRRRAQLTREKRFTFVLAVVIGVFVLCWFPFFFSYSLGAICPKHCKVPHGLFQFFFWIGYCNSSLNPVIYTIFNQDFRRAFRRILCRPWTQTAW
As to the kind of experiment: Tested for its inhibitory activity against alpha-2 adrenoceptor in guinea pig ileum. The test is classed as tissue-based, Cavia porcellus. The conditions noted are these: target entry is the homologue from another species.

Test [2] deals with T2, Adrenergic receptor alpha-1 (Homo sapiens, UniProt P35348+P25100+P35368).
T2 sequence (P35348 whole entry): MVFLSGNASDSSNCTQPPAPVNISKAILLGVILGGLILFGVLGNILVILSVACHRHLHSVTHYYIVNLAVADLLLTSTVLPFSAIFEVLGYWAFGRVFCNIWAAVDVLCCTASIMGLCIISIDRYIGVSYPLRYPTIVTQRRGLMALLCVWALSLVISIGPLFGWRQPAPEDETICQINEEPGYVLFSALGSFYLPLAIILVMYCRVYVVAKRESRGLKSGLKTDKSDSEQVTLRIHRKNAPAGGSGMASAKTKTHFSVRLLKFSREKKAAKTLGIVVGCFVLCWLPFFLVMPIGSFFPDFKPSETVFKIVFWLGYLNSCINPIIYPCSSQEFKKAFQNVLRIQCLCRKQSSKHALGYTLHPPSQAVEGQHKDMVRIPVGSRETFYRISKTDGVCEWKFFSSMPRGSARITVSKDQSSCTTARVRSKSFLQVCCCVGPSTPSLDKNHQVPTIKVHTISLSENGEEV
T2 sequence (P25100 whole entry): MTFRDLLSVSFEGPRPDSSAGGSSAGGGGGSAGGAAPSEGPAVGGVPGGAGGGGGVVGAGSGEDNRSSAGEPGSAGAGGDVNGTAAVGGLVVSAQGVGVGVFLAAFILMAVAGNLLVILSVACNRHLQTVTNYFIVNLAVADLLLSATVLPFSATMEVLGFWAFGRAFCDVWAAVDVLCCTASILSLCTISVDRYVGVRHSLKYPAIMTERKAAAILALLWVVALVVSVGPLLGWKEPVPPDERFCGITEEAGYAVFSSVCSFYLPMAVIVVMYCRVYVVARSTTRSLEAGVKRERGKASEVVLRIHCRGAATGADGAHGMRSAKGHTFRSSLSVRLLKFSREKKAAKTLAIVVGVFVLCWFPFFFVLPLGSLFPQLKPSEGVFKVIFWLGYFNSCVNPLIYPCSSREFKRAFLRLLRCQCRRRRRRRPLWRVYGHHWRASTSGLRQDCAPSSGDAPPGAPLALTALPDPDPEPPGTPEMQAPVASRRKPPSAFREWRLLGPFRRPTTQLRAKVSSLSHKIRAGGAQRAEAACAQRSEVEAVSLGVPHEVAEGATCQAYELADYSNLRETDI
T2 sequence (P35368 whole entry): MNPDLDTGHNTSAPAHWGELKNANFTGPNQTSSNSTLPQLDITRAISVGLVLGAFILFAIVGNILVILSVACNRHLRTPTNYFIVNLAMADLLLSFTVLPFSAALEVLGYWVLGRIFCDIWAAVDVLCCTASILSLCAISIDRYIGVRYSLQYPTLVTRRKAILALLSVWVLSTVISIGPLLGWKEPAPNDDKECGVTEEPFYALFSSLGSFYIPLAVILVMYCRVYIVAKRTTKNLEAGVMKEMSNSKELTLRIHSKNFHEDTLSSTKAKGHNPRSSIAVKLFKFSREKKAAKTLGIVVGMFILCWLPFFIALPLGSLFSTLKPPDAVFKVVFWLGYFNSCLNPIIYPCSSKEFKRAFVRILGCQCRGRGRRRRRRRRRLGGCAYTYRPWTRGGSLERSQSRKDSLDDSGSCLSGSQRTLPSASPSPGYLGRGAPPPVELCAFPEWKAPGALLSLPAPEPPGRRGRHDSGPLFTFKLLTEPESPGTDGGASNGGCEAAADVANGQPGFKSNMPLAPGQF
The test can be described thus: Tested for its inhibitory activity against alpha-1 adrenoceptor in guinea pig ileum. The test is classed as tissue-based, Cavia porcellus. The conditions noted are these: target entry is the homologue from another species.

Test [3] can be described thus: Ratio between IC50 values of alpha 1 and alpha 2 receptors.
For test [4], the target named is Adrenergic receptor alpha (Rattus norvegicus) (UniProt P15823+P23944+P43140+P22086+P19328+P22909). As to the kind of experiment: Ratio between EC50 values of alpha 1 and alpha 2 receptors. The class given is protein assay.

Broadly, the EC50 is the concentration giving half of the maximal effect. Higher therefore signals a less potent agent.

With `Cl.c1ccc2c(Cc3c[nH]cn3)cccc2c1`, the EC50 in test [1] is 0.018 µM; in test [2] it was 2.113 µM. For the same molecule, the Ratio in test [3] was 2.7; in test [4], 117.

`Cl.OC(c1c[nH]cn1)c1cccc2ccccc12` (stereo unspecified): the EC50 in test [1] turned out to be 0.375 µM; in test [2] it was 12.692 µM. Also, the Ratio is 1.05 in test [3] and 33.8 in test [4].

In the case of `CC(c1c[nH]cn1)c1cccc2ccccc12` (stereo in doubt; S-(-)-2), the EC50 in test [2] was 10.814 µM. In other words, the double-digit micromolar range.

`COC(c1c[nH]cn1)c1cccc2ccccc12.Cl` (stereo unspecified) yielded a half-maximal effective concentration (EC50) in test [1] of 32.992 µM. The Ratio in test [3] is over 5.8.

Consider `CC(c1c[nH]cn1)c1cccc2ccccc12` (stereo in doubt; S-(+)-2), for which the EC50 in test [1] was 0.011 µM; in test [2], 8.273 µM.

In test [2], `Cc1cccc(C(C)c2c[nH]cn2)c1C` (stereo unspecified) [MEDETOMIDINE] gave an EC50 of 1.165 µM.

As for `CC(c1c[nH]cn1)c1cccc2ccccc12` (stereo in doubt; 2), the results for the EC50 in test [1] and in test [2] were 0.009 µM and 5.793 µM, respectively.

Values taken from ChEMBL document CHEMBL1127588, “A structure-activity relationship study of benzylic modifications of 4-[1-(1-naphthyl)ethyl]-1H-imidazoles on alpha 1- and alpha 2-adrenergic receptors” (J Med Chem, 1994).
